In series [1] the test system is endometrial stromal T HESC cells. In words: MTT reduction assay, cell viability. In kind it is cell-based, human. The conditions noted are these: T HESC cells, 48-h incubation, MTT. The procedure: (§1) The effect of resveratrol and its natural analogs on the viability of endometriotic epithelial 12Z cells and endometrial stromal T HESC cells was assessed using the MTT assay. Table 1 presents the IC10 and IC50 values (the inhibitor concentration required for 10% and 50% reduction in […]) obtained after 48-h incubation with the tested compounds. […] The cytotoxicity of resveratrol and pterostilbene to 12Z cells was not markedly different. T HESC and 12Z cells varied in susceptibility to the treatment with stilbenes tested, as evidenced by the cytotoxic doses shown in Table 1. […] Similarly, resveratrol evoked much weaker cytotoxic effects in T HESC cells than in 12Z cells. Polydatin at concentrations up to 400 µM was not cytotoxic to the T HESC cells, while at a dose of 86.76 µM, it induced the first cytotoxic symptoms in 12Z cells. […] The increased susceptibility of endometriotic 12Z cells than endometrial T HESC cells to resveratrol and its natural analogs was consistent in both assays (Fig. 1).
(§2) The immortalized human endometriotic epithelial cells (12Z), derived from peritoneal endometriosis lesions, were obtained from Applied Biological Materials Inc. (Richmond, Canada). The 12Z cells were cultured in Dulbecco's Modified Eagle Medium/Nutrient Mixture F-12 (DMEM/F12), containing 10% fetal bovine serum (FBS) and 50 mg/L gentamycin. American Type Culture Collection (ATCC, Manassas, VA, USA) was the source for human endometrial stromal cells immortalized by telomerase (T HESC, CRL-4003). The cells were maintained routinely in phenol red-free DMEM/F12 supplemented with 10% charcoal/dextran treated FBS, 1% ITS + 1, and 50 mg/L gentamycin, at 37 °C and 5% CO2. Both cell lines were negative for mycoplasma contamination; mycoplasma-free cells were confirmed repeatedly during the study.
(§3) Cells were seeded at a density of 0.15 × 10^5 cells/cm^2 in 6-well plates. The 24-h cell cultures were treated with resveratrol and its derivatives for 48 h under standard culture conditions. Camptothecin was applied as a reference apoptosis inducer; its final concentrations were set to 5 µM and 50 µM.
(§4) Cell viability and metabolic activity were determined using the MTT colorimetric assay, according to the protocol described in previous studies. Based on the obtained data, the dose–response curves were plotted, and inhibitory concentrations (IC) were calculated. In addition, cell proliferation was measured using the alamarBlue™ Cell Viability Reagent (Invitrogen, Carlsbad, CA, USA) according to the manufacturer's protocol. Fluorescence was measured using a Tecan M200 Infinite microplate reader (Tecan Group Ltd., Männedorf, Switzerland).
A general note: Tetrazolium assays rely on reduction of a dye to a coloured formazan, in cell work by metabolically active cells.

The test system of series [2] is endometriotic epithelial 12Z cells. In words: MTT reduction assay, cell viability. The class given is cell-based, human. The procedure:
as §1, §2, §3, §4

The term IC50 denotes the concentration needed to halve the response being measured. By IC10 is commonly meant the point of the concentration-response curve where the effect stands at 10%. A low value points to greater potency. On to `COc1cc(C=Cc2ccc(O)cc2)cc(OC)c1` [Pterostilbene, 3,5-dimethoxy-4′-hydroxystilbene], for which the IC50 in series [1] (Homo sapiens) is 145 ± 7.71 µM; in series [2] (Homo sapiens, 12Z cells, 48-h incubation), 73.9 ± 6 µM. The IC10 was 113.79 ± 5.11 ^## µM in series [1] and 29.34 ± 4.46 µM in series [2] (12Z cells, 48-h incubation). Further, the “cytotoxicity in 12Z versus T HESC cells, comparing IC50 values” in series [2] (48 h) was “almost twofold lower”.

Source of the values: paper PMC10349804, “Natural resveratrol analogs differentially target endometriotic cells into apoptosis pathways” (Scientific Reports, 2023).
